Reference: patent publication US20260060960A1, “GAMMA-SECRETASE INHIBITORS FOR USE IN THE TREATMENT OF INHERITED EPIDERMOLYSIS BULLOSA” (OSPEDALE PEDIATRICO BAMBINO GESU', priority 2022, published 2026)
d = 2'-deoxy (DNA); r = 2'-OH (RNA)

Tests used:
Assay type in all cases: cell-based, human
JAG1 = experiment: Immunoblotting of JAG1 after siRNA transfection (silencing efficiency); details: RDEB-FBs; for JAG1 expression levels (immunoblotting): 48 h after transfection, absence of TGF-β1, vs Scramble
Source text: Transfection of short interfering RNAs targeting Jagged 1. Two candidate short interfering RNA (siRNA) sequences complementary to different regions of the human JAG1 mRNA, si-JAG1-1 and si-JAG1-2, were chosen to be functionally evaluated in the context of transfection experiments. siJAG1-1 and siJAG1-2 sequences are indicated below: 5′-GAAUGUGAGGCCAAACCUU[dT][dT]-3′ (SEQ ID NO:1) (si-JAG1-1, cod. SASI_Hs01_00100441) and 5′-CCUGUAACAUAGCCCGAAA[dT][dT]-3′ (SEQ ID NO:2) (si-JAG1-2, cod. SASI_Hs01_00100442). Both siRNAs were purchased from Merck (Merck, Darmstadt, Germany). Lipofectamine 2000 (Thermo Fisher Scientific, Waltham, MA, USA) was used to transfect siRNAs, following manufacturer's protocol. After 48 h, the silencing efficiency of the two candidate siRNAs was assessed by immunoblotting (IB) (FIG. 2). […] Accordingly, si-JAG1-2, throughout the text indicated as si-JAG1, was selected for all downstream silencing experiments. The MISSION® siRNA Universal Negative Control #1 (Merck) was used as negative control for siRNA transfections.
(§1) Whole-cell lysates were obtained in radioimmunoprecipitation assay (RIPA) buffer (Sigma-Aldrich) supplemented with phosphatase- and protease inhibitors (Merck). Different amounts of protein lysates were run under reducing conditions by using 4-12% gradient precast gels (Thermo Fisher Scientific) or hand-casting polyacrylamide gels (4-8%), depending on the protein to be assayed. Amersham™ Protran® Premium nitrocellulose membranes (pore size 0.2 μm) (Merck) were immunoblotted with primary antibodies indicated in Table 3 and incubated with horseradish peroxidase-linked secondary antibodies.

[1] = system: primary fibroblasts from RDEB patients (RDEB-FBs); experiment: Collagen lattice contraction (CLC) assay; details: RDEB-FBs vs Scramble siRNA, with and without TGF-β1
Protocol: RDEB-FBs (5×10^5 cells) were mixed in a collagen buffer and seeded into 12-well plates as previously described. After gelation, fibroblast-populated collagen lattices were detached from the wells and left floating. RDEB-FBs were treated with 20 μM of DAPT and PF-03804014 in DMEM containing 0.1% BSA, in the presence or absence of TGF-β1 at 2 ng/mL, as contraction booster. JAG1-silenced RDEB-FBs were embedded in collagen lattices 24 h after siRNA transfection. In both cases, images were acquired with ChemiDoc™ XRS+ System (Bio-Rad, Hercules, CA, USA) at the detachment of collagen lattices from the wells (time 0, TO) and after 48 h. Gel areas were measured by ImageJ software and photos at TO were used as references.

α-SMA, TAGLN, CNN1, JAG1 = experiment: Immunoblotting of myofibroblast/fibrotic markers in RDEB fibroblasts; details: RDEB-FBs vs Scramble, treated or not with TGF-β1
Source text: as §1
Detection was performed using Cytiva ECL™ Prime Western Blotting System (Merck) or SuperSignal West Femto (Thermo Fisher Scientific), depending on the protein to be assayed. Antibody against Notch1 (all forms; clone bTAN20) was obtained from the Developmental Studies Hybridoma Bank (DSHB) at the University of Iowa (DSHB, Iowa City, IA, USA). GAPDH (clone 14C10), Jagged1 (clone 28H8) and NOTCH1 intracellular domain (clone D3B8) were obtained from Cell Signaling (Cell Signaling Technology Inc., Beverly, MA, USA). Antibodies against TAGLN (clone #859112) and CNN1 (clone #836701) were from R&D Systems (R&D Systems, Inc. Minneapolis, MN, USA). Antibody against α-SMA (clone 1A4) was purchased from Sigma-Aldrich. Antibody against lamin B1 (LMNB1) was from Abcam (Cambridge, UK). […]

Substance	JAG1 expression levels (immunoblotting) (JAG1)	cell ability to contract type I collagen matrix after JAG1 silencing [1]	protein levels of α-SMA, CNN1, TAGLN, JAG1, NOTCH FL after JAG1 silencing (α-SMA, TAGLN, CNN1, JAG1)	JAG1 protein levels (immunoblotting) (JAG1; presence of TGF-β1 2 ng/mL for 24 h, compared with si-JAG1-1)
si-JAG1-1: short interfering RNA targeting human JAG1 mRNA, 5′-GAAUGUGAGGCCAAACCUU[dT][dT]-3′ (SEQ ID NO:1) (sense GAAUGUGAGGCCAAACCUUTT; sugars from the 5' end r19 d2, backbone and methylation of C not given here)	able to reduce JAG1 expression levels	–	–	–
si-JAG1-2: short interfering RNA targeting human JAG1 mRNA, 5′-CCUGUAACAUAGCCCGAAA[dT][dT]-3′ (SEQ ID NO:2); indicated as si-JAG1 throughout (sense CCUGUAACAUAGCCCGAAATT; sugars from the 5' end r19 d2, backbone and methylation of C not given here)	able to reduce JAG1 expression levels	reduced	significant reduction of α-SMA, CNN1, TAGLN, JAG1 and unprocessed NOTCH1 receptor	major reduction of JAG1 protein levels
